Read-outs that look alike come from different tables or passages of the source.
Key:
L25A PETNR = L25A PETNR (Enterobacter cloacae, UniProt P71278, L26A); details: for kobs1 / A2 (amplitude of kobs2 out of total absorbance change) / kobs2: pH 7.0; for ΔCp^⧧ / ΔHT0^⧧ / ΔST0^⧧: fit of kobs1 (5–40 °C) to eq 1
L25I PETNR = L25I PETNR (Enterobacter cloacae, UniProt P71278, L26I); details: for kobs1 / A2 (amplitude of kobs2 out of total absorbance change) / kobs2: 10 mM NADPH or 25 mM NADH, pH 7.0; for ΔCp^⧧ / ΔHT0^⧧ / ΔST0^⧧: fit of kobs1 (5–40 °C) to eq 1
WT PETNR = WT PETNR (Enterobacter cloacae, UniProt P71278); assay: Stopped-flow FMN reduction (reductive half-reaction, hydride transfer) of WT PETNR by coenzyme; details: for kobs1: 10 mM NADPH or 25 mM NADH, pH 7.0; for ΔCp^⧧ / ΔHT0^⧧ / ΔST0^⧧: fit of kobs1 (5–40 °C) to eq 1
[1] = 5 °C, 10 mM NADPH or 25 mM NADH
[2] = 10 °C, 10 mM NADPH or 25 mM NADH
[3] = 15 °C, 10 mM NADPH or 25 mM NADH
[4] = 20 °C, 10 mM NADPH or 25 mM NADH
[5] = 25 °C, 10 mM NADPH or 25 mM NADH
[6] = 30 °C, 10 mM NADPH or 25 mM NADH
[7] = 35 °C, 10 mM NADPH or 25 mM NADH
[8] = 40 °C, 10 mM NADPH or 25 mM NADH
[9] = deuterated minus protiated coenzyme, T0 = 298 K
[10] = 25 °C, 50 mM potassium phosphate pH 7.0, 20 μM enzyme
[11] = 25 °C, 50 mM potassium phosphate pH 7.0, 20 μM enzyme, fast phase
[12] = 40 °C, third phase, 10 mM NADPH or 25 mM NADH

L25A PETNR, sequence (P71278 entry or part of it L26A): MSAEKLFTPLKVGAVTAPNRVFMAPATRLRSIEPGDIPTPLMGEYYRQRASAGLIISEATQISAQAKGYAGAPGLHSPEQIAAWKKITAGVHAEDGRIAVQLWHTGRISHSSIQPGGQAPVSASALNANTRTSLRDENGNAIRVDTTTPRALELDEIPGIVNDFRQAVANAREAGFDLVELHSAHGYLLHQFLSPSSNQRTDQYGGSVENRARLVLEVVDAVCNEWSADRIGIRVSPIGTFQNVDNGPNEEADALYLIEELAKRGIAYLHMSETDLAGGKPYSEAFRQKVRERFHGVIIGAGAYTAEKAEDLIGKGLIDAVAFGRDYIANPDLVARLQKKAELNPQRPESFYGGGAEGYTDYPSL
L25I PETNR, sequence (P71278 entry or part of it L26I): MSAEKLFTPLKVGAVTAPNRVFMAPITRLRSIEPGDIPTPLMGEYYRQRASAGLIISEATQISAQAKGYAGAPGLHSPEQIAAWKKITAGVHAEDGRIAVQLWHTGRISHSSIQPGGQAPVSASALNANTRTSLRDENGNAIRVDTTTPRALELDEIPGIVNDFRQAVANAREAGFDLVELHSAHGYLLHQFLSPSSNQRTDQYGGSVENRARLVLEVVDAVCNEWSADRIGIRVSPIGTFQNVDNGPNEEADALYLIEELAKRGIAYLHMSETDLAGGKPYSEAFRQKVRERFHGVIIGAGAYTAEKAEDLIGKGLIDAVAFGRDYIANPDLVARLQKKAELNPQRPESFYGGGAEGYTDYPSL
WT PETNR, sequence (P71278 entry or part of it): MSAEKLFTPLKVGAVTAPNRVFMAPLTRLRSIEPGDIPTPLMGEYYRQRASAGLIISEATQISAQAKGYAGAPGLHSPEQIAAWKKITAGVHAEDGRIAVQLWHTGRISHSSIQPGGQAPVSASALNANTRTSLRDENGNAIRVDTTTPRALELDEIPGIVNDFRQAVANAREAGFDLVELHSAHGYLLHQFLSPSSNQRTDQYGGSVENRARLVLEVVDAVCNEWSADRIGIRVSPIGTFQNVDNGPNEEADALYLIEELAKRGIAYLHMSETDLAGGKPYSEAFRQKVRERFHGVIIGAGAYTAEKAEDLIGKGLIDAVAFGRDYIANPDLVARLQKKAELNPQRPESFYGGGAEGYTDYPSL

[2H][C@@H]1C=CN([C@@H]2O[C@H](COP(=O)(O)OP(=O)(O)OC[C@H]3O[C@@H](n4cnc5c(N)ncnc54)[C@H](O)[C@@H]3O)[C@@H](O)[C@H]2O)C=C1C(N)=O [(R)-[4-^2H]-NADH]
kobs1 (L25A PETNR; [1]): 0.162 ± 0.002 s⁻¹
kobs1 (L25A PETNR; [2]): 0.211 ± 0.002 s⁻¹
kobs1 (L25A PETNR; [3]): 0.275 ± 0.004 s⁻¹
kobs1 (L25A PETNR; [4]): 0.360 ± 0.004 s⁻¹
kobs1 (L25A PETNR; [5]): 0.495 ± 0.002 s⁻¹
kobs1 (L25A PETNR; [6]): 0.612 ± 0.042 s⁻¹
A2 (amplitude of kobs2 out of total absorbance change) (L25A PETNR; [7]): 15.60 ± 2.69%
kobs1 (L25A PETNR; [7]): 0.885 ± 0.018 s⁻¹
kobs2 (L25A PETNR; [7]): 0.11 ± 0.03 s⁻¹
A2 (amplitude of kobs2 out of total absorbance change) (L25A PETNR; [8]): 34.60 ± 0.91%
kobs1 (L25A PETNR; [8]): 1.070 ± 0.054 s⁻¹
kobs2 (L25A PETNR; [8]): 0.17 ± 0.01 s⁻¹
ΔCp^⧧ (L25A PETNR; T0 = 298 K): 0.42 ± 0.14 kJ mol^–1 K^–1
ΔHT0^⧧ (L25A PETNR; T0 = 298 K): 40.3 ± 1.1 kJ mol^–1
ΔST0^⧧ (L25A PETNR; T0 = 298 K): –115.7 ± 3.8 J mol^–1 K^–1
Isotope Effect on ΔCp^⧧ (L25A PETNR; [9]): 0.13 ± 0.15 kJ mol^–1 K^–1
Isotope Effect on ΔHT0^⧧ (L25A PETNR; [9]): 6.6 ± 1.2 kJ mol^–1
Isotope Effect on ΔST0^⧧ (L25A PETNR; [9]): 6.4 ± 4.2 J mol^–1 K^–1
kobs1 (L25I PETNR; 5 °C): 0.062 ± 0.001 s⁻¹
kobs1 (L25I PETNR; 10 °C): 0.083 ± 0.001 s⁻¹
kobs1 (L25I PETNR; 20 °C): 0.160 ± 0.001 s⁻¹
kobs1 (L25I PETNR; 25 °C): 0.223 ± 0.003 s⁻¹
kobs1 (L25I PETNR; 30 °C): 0.306 ± 0.005 s⁻¹
kobs1 (L25I PETNR; 35 °C): 0.418 ± 0.001 s⁻¹
kobs1 (L25I PETNR; 40 °C): 0.604 ± 0.066 s⁻¹
ΔCp^⧧ (L25I PETNR; T0 = 298 K): 0.30 ± 0.07 kJ mol^–1 K^–1
ΔHT0^⧧ (L25I PETNR; T0 = 298 K): 44.9 ± 0.2 kJ mol^–1
ΔST0^⧧ (L25I PETNR; T0 = 298 K): –106.8 ± 0.8 J mol^–1 K^–1
Isotope Effect on ΔCp^⧧ (L25I PETNR; [9]): –0.03 ± 0.19 kJ mol^–1 K^–1
Isotope Effect on ΔHT0^⧧ (L25I PETNR; [9]): 2.3 ± 1.8 kJ mol^–1
Isotope Effect on ΔST0^⧧ (L25I PETNR; [9]): –9.2 ± 6.0 J mol^–1 K^–1
kobs1 (WT PETNR; 5 °C): 0.091 ± 0.001 s⁻¹
kobs1 (WT PETNR; 15 °C): 0.156 ± 0.001 s⁻¹
kobs1 (WT PETNR; 20 °C): 0.204 ± 0.002 s⁻¹
kobs1 (WT PETNR; 25 °C): 0.274 ± 0.001 s⁻¹
kobs1 (WT PETNR; 30 °C): 0.366 ± 0.002 s⁻¹
kobs1 (WT PETNR; 35 °C): 0.499 ± 0.011 s⁻¹
kobs1 (WT PETNR; 40 °C): 0.673 ± 0.005 s⁻¹
ΔCp^⧧ (WT PETNR; T0 = 298 K): 0.46 ± 0.02 kJ mol^–1 K^–1
ΔHT0^⧧ (WT PETNR; T0 = 298 K): 40.3 ± 0.1 kJ mol^–1
ΔST0^⧧ (WT PETNR; T0 = 298 K): –120.4 ± 0.5 J mol^–1 K^–1
Isotope Effect on ΔCp^⧧ (WT PETNR; [9]): 0.07 ± 0.04 kJ mol^–1 K^–1
Isotope Effect on ΔHT0^⧧ (ΔΔHT0^⧧) (WT PETNR; [9]): 4.9 ± 0.2 kJ mol^–1
Isotope Effect on ΔST0^⧧ (WT PETNR; [9]): 0.1 ± 0.7 J mol^–1 K^–1

NC(=O)C1=CN([C@@H]2O[C@H](COP(=O)(O)OP(=O)(O)OC[C@H]3O[C@@H](n4cnc5c(N)ncnc54)[C@H](O)[C@@H]3O)[C@@H](O)[C@H]2O)C=CC1 [NADH]
kobs1 (L25A PETNR; [1]): 1.27 ± 0.01 s⁻¹
kobs1 (L25A PETNR; [2]): 1.61 ± 0.01 s⁻¹
kobs1 (L25A PETNR; [3]): 2.03 ± 0.01 s⁻¹
kobs1 (L25A PETNR; [4]): 2.63 ± 0.03 s⁻¹
KS (L25A PETNR; [10]): 2294 ± 91 µM
kred (L25A PETNR; [11]): 3.62 ± 0.04 s^–1
A2 (amplitude of kobs2 out of total absorbance change) (L25A PETNR; [5]): 2.29 ± 0.92%
kobs1 (L25A PETNR; [5]): 3.33 ± 0.07 s⁻¹
kobs2 (L25A PETNR; [5]): 0.09 ± 0.06 s⁻¹
A2 (amplitude of kobs2 out of total absorbance change) (L25A PETNR; [6]): 4.93 ± 0.85%
kobs1 (L25A PETNR; [6]): 4.23 ± 0.06 s⁻¹
kobs2 (L25A PETNR; [6]): 0.08 ± 0.01 s⁻¹
A2 (amplitude of kobs2 out of total absorbance change) (L25A PETNR; [7]): 12.72 ± 0.74%
kobs1 (L25A PETNR; [7]): 5.20 ± 0.11 s⁻¹
kobs2 (L25A PETNR; [7]): 0.11 ± 0.01 s⁻¹
A3 (amplitude of third phase) (L25A PETNR; [12]): 19.01 ± 3.17%
kobs3 (L25A PETNR; [12]): 1.10 ± 0.0
A2 (amplitude of kobs2 out of total absorbance change) (L25A PETNR; [8]): 20.40 ± 1.48%
kobs1 (L25A PETNR; [8]): 6.74 ± 0.37 s⁻¹
kobs2 (L25A PETNR; [8]): 0.13 ± 0.01 s⁻¹
ΔCp^⧧ (L25A PETNR; T0 = 298 K): 0.28 ± 0.05 kJ mol^–1 K^–1
ΔHT0^⧧ (L25A PETNR; T0 = 298 K): 33.6 ± 0.5 kJ mol^–1
ΔST0^⧧ (L25A PETNR; T0 = 298 K): –122.1 ± 1.7 J mol^–1 K^–1
kobs1 (L25I PETNR; 5 °C): 0.49 ± 0.01 s⁻¹
kobs1 (L25I PETNR; 10 °C): 0.66 ± 0.01 s⁻¹
kobs1 (L25I PETNR; 15 °C): 0.90 ± 0.01 s⁻¹
kobs1 (L25I PETNR; 20 °C): 1.20 ± 0.01 s⁻¹
KS (L25I PETNR; [10]): 306 ± 40 µM
kred (L25I PETNR; [11]): 1.74 ± 0.04 s^–1
A2 (amplitude of kobs2 out of total absorbance change) (L25I PETNR; 25 °C): 6.40 ± 2.07%
kobs1 (L25I PETNR; 25 °C): 1.77 ± 0.06 s⁻¹
kobs2 (L25I PETNR; 25 °C): 0.36 ± 0.10 s⁻¹
A2 (amplitude of kobs2 out of total absorbance change) (L25I PETNR; 30 °C): 6.86 ± 1.61%
kobs1 (L25I PETNR; 30 °C): 2.39 ± 0.06 s⁻¹
kobs2 (L25I PETNR; 30 °C): 0.39 ± 0.09 s⁻¹
A2 (amplitude of kobs2 out of total absorbance change) (L25I PETNR; 35 °C): 8.92 ± 1.01%
kobs1 (L25I PETNR; 35 °C): 3.26 ± 0.07 s⁻¹
kobs2 (L25I PETNR; 35 °C): 0.49 ± 0.07 s⁻¹
A2 (amplitude of kobs2 out of total absorbance change) (L25I PETNR; 40 °C): 12.28 ± 1.93%
kobs1 (L25I PETNR; 40 °C): 4.26 ± 0.13 s⁻¹
kobs2 (L25I PETNR; 40 °C): 0.58 ± 0.05 s⁻¹
ΔCp^⧧ (L25I PETNR; T0 = 298 K): 0.32 ± 0.18 kJ mol^–1 K^–1
ΔHT0^⧧ (L25I PETNR; T0 = 298 K): 42.7 ± 1.7 kJ mol^–1
ΔST0^⧧ (L25I PETNR; T0 = 298 K): –97.7 ± 6.0 J mol^–1 K^–1
kobs1 (WT PETNR; 5 °C): 0.73 ± 0.01 s⁻¹
kobs1 (WT PETNR; 10 °C): 0.92 ± 0.01 s⁻¹
kobs1 (WT PETNR; 15 °C): 1.17 ± 0.01 s⁻¹
kobs1 (WT PETNR; 20 °C): 1.51 ± 0.01 s⁻¹
KS (WT PETNR; [10]): 1067 ± 13 µM
kred (WT PETNR; [11]): 2.03 ± 0.01 s^–1
kobs1 (WT PETNR; 25 °C): 1.95 ± 0.01 s⁻¹
kobs1 (WT PETNR; 30 °C): 2.53 ± 0.02 s⁻¹
kobs1 (WT PETNR; 35 °C): 3.30 ± 0.01 s⁻¹
kobs1 (WT PETNR; 40 °C): 4.25 ± 0.02 s⁻¹
ΔCp^⧧ (WT PETNR; T0 = 298 K): 0.39 ± 0.03 kJ mol^–1 K^–1
ΔHT0^⧧ (WT PETNR; T0 = 298 K): 35.4 ± 0.1 kJ mol^–1
ΔST0^⧧ (WT PETNR; T0 = 298 K): –120.5 ± 0.5 J mol^–1 K^–1

Source: paper PMC6516726 (ACS Catalysis, 2018)
